Values joined by “and” are separate entries in the source; they are usually repeats but may differ in a detail not shown here. Equal values may be shown once.
Legend:
[1] = biological target: 5-hydroxytryptamine receptor 1B (Homo sapiens, UniProt P28222)
[2] = biological target: Gamma-aminobutyric acid receptor subunit alpha-1 (Rattus norvegicus, UniProt P62813)
[3] = biological target: D(1A) dopamine receptor (Homo sapiens, UniProt P21728)
[4] = biological target: 5-hydroxytryptamine receptor 2C (Sus scrofa, UniProt G7ZKZ7)
[5] = biological target: 5-hydroxytryptamine receptor 2B (Rattus norvegicus, UniProt P30994)
Sequence of 5-hydroxytryptamine receptor 2B (P30994 whole entry): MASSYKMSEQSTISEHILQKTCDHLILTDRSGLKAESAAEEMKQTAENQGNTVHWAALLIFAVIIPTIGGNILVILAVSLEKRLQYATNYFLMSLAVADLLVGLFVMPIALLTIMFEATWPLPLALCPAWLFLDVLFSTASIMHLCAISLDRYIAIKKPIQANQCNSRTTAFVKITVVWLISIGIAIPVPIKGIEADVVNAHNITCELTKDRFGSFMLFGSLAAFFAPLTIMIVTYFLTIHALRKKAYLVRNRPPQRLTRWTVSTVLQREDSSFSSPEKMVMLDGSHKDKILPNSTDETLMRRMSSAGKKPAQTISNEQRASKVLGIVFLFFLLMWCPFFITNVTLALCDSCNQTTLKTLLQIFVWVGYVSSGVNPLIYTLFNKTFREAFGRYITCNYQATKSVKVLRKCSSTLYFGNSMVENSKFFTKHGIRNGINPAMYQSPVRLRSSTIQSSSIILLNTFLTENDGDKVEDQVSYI

[6] = biological target: 5-hydroxytryptamine receptor 1E (Homo sapiens, UniProt P28566)
[7] = biological target: D(2) dopamine receptor (Homo sapiens, UniProt P14416)
Sequence of D(2) dopamine receptor (Homo sapiens, UniProt P14416) (P14416 whole entry): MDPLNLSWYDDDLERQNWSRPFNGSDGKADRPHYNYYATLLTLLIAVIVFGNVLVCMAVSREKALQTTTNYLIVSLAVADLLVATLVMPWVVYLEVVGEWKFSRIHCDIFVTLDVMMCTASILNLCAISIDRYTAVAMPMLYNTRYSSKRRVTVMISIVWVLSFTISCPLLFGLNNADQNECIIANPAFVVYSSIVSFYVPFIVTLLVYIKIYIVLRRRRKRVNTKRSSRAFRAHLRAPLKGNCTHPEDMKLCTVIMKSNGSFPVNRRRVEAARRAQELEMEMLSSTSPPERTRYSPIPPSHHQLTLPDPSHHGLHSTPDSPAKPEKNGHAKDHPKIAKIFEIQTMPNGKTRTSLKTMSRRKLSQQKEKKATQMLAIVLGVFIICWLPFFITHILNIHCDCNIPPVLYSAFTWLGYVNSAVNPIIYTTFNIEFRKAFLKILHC

[8] = biological target: Histamine H1 receptor (Cavia porcellus, UniProt P31389)
Sequence of Histamine H1 receptor (P31389 whole entry): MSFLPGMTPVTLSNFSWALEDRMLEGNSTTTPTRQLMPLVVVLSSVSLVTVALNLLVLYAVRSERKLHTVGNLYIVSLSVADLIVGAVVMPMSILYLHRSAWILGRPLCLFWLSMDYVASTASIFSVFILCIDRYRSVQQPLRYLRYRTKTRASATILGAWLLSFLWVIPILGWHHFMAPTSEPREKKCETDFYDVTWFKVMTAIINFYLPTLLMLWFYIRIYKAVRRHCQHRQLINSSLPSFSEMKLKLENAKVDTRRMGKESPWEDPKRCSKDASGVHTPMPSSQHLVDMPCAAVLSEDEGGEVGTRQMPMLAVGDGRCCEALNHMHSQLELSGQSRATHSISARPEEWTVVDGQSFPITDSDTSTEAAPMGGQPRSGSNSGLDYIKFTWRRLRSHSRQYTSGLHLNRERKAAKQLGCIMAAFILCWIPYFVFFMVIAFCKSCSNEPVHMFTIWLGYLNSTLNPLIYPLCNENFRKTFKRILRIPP

[9] = biological target: Alpha-1A adrenergic receptor (Rattus norvegicus, UniProt P43140)
Sequence of Alpha-1A adrenergic receptor (Rattus norvegicus, UniProt P43140) (P43140 whole entry): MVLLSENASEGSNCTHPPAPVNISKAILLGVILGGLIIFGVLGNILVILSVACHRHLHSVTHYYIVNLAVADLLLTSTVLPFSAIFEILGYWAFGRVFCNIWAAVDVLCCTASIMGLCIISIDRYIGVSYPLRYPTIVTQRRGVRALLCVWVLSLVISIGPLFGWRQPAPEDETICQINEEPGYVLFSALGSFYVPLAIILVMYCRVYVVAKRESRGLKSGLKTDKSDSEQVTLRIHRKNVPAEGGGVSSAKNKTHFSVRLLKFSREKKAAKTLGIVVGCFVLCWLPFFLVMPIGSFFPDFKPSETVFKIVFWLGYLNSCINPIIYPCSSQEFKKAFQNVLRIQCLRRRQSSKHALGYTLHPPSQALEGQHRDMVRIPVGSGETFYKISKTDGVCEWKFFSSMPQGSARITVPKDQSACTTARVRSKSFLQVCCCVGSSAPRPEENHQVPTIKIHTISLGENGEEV

[10] = biological target: 5-hydroxytryptamine receptor 4 (Sus scrofa, UniProt Q29006)
Sequence of 5-hydroxytryptamine receptor 4 (Q29006 whole entry): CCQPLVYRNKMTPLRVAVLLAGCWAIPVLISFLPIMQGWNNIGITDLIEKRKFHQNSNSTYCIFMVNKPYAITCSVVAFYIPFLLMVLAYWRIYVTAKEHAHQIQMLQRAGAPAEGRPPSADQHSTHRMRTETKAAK

[11] = biological target: Alpha-2C adrenergic receptor (Rattus norvegicus, UniProt P22086)
Sequence of Alpha-2C adrenergic receptor (P22086 whole entry): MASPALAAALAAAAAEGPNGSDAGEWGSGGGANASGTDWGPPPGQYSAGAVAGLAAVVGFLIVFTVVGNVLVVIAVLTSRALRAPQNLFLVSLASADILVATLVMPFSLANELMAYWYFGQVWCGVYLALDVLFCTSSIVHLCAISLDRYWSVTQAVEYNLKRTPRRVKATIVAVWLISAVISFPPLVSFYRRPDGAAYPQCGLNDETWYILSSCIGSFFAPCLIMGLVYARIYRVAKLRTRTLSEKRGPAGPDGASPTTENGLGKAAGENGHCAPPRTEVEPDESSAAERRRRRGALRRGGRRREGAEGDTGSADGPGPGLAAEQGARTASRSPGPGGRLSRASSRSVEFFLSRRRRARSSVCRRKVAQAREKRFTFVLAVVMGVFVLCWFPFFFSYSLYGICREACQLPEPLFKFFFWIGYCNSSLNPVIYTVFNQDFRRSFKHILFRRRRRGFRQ

[12] = biological target: 5-hydroxytryptamine receptor 2A (Rattus norvegicus, UniProt P14842)
Sequence of 5-hydroxytryptamine receptor 2A (Rattus norvegicus, UniProt P14842) (P14842 whole entry): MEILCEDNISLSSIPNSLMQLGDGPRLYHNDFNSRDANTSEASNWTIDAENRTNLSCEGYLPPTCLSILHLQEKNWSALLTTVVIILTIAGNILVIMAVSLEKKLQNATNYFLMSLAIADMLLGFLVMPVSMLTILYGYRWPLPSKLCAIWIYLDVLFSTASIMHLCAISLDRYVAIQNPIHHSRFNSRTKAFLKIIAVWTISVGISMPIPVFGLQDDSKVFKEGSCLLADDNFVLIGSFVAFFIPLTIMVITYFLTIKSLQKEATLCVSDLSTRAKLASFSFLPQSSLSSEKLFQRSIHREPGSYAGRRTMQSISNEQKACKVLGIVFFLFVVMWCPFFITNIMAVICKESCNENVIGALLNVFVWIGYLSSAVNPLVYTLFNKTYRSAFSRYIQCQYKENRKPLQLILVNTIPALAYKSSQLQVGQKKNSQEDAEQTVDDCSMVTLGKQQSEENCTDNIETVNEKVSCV

[13] = biological target: 5-hydroxytryptamine receptor 2A (Oryctolagus cuniculus, UniProt G1SYA7)
Sequence of 5-hydroxytryptamine receptor 2A (Oryctolagus cuniculus, UniProt G1SYA7) (G1SYA7 whole entry): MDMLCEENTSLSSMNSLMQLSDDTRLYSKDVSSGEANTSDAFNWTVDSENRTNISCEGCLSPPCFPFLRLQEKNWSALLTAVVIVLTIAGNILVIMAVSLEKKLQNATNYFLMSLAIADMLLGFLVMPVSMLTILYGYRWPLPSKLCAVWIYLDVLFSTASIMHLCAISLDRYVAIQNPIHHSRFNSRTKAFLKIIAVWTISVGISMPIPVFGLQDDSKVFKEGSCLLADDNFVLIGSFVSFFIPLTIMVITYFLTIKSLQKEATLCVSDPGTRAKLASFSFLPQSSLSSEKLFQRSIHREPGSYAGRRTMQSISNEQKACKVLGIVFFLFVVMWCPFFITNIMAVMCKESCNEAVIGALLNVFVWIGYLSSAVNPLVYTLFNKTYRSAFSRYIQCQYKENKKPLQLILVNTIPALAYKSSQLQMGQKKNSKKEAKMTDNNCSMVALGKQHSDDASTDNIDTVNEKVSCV

[14] = biological target: Beta-2 adrenergic receptor (Sylvilagus floridanus, UniProt Q9BFY9)
[15] = biological target: Muscarinic acetylcholine receptor M3 (Sus scrofa, UniProt P11483)
[16] = biological target: 5-hydroxytryptamine receptor 1D (Homo sapiens, UniProt P28221)
[17] = biological target: D(1A) dopamine receptor (Rattus norvegicus, UniProt P18901)
Sequence of D(1A) dopamine receptor (Rattus norvegicus, UniProt P18901) (P18901 whole entry): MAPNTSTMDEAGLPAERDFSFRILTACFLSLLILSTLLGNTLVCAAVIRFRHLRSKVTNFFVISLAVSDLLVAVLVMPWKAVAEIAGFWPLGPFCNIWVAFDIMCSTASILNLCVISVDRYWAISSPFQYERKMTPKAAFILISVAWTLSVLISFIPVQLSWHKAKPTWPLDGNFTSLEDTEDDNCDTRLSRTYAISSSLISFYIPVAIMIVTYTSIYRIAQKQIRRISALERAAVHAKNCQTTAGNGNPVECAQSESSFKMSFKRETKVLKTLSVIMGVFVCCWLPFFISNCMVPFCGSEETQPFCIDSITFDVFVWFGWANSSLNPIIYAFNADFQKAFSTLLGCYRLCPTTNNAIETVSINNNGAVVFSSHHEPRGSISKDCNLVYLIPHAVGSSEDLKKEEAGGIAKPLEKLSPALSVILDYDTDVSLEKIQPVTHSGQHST

[18] = biological target: 5-hydroxytryptamine 1D receptor (Bos taurus, UniProt Q8MI13)
Sequence of 5-hydroxytryptamine 1D receptor (Q8MI13 whole entry): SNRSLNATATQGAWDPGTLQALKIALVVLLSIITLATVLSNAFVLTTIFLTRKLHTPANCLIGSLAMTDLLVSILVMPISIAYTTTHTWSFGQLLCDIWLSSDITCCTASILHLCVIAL

[19] = biological target: Alpha-1A adrenergic receptor (Oryctolagus cuniculus, UniProt O02824)
[20] = biological target: Beta-1 adrenergic receptor (Cavia porcellus, UniProt B0FL73)
[21] = biological target: 5-hydroxytryptamine receptor 1A (Rattus norvegicus, UniProt P19327)
Sequence of 5-hydroxytryptamine receptor 1A (P19327 whole entry): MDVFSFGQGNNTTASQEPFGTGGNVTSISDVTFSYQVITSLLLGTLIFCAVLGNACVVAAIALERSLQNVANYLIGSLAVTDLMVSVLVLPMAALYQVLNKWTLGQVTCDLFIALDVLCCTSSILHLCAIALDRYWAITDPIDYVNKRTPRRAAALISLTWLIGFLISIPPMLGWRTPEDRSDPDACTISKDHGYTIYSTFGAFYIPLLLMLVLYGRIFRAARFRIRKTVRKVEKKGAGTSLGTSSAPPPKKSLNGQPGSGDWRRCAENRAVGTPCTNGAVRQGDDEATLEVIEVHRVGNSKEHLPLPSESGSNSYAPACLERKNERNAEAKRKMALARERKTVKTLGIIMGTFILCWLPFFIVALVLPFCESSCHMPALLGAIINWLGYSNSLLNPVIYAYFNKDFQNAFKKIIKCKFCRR

[22] = biological target: D(2) dopamine receptor (Rattus norvegicus, UniProt P61169)
[23] = biological target: 5-hydroxytryptamine receptor 1B (Oryctolagus cuniculus, UniProt P49144)
[24] = biological target: Histamine H2 receptor (Oryctolagus cuniculus, UniProt G1TWL8)
[25] = biological target: 5-hydroxytryptamine receptor 3A (Rattus norvegicus, UniProt P35563)
[26] = biological target: Alpha-2A adrenergic receptor (Homo sapiens, UniProt P08913)
[27] = biological target: Beta-2 adrenergic receptor (Rattus norvegicus, UniProt P10608)
[28] = biological target: 5-hydroxytryptamine receptor 1D (Cavia porcellus, UniProt Q60484)
[29] = biological target: Alpha-2B adrenergic receptor (Rattus norvegicus, UniProt P19328)
Sequence of Alpha-2B adrenergic receptor (P19328 whole entry): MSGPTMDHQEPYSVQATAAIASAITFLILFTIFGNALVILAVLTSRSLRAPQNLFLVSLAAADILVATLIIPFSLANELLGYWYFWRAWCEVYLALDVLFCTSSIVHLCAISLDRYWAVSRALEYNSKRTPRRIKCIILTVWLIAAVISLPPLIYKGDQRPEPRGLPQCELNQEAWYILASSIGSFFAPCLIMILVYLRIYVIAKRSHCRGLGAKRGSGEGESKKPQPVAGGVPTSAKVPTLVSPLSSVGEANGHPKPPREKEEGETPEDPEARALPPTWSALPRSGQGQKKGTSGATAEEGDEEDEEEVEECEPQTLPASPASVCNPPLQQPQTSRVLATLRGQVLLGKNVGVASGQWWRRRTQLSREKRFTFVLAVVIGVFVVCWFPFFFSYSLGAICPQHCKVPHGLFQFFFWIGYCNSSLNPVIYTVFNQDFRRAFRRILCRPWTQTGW

[30] = biological target: Beta-1 adrenergic receptor (Rattus norvegicus, UniProt P18090)
[31] = biological target: 5-hydroxytryptamine receptor 2C (Rattus norvegicus, UniProt P08909)
[32] = biological target: 5-hydroxytryptamine receptor 2C (Homo sapiens, UniProt P28335)

How did the Ki [1] turn out when `Cc1cc(NC(=O)Nc2ccc3c(ccn3C)c2)sn1` [CAS_3277600] was run?
The Ki was > 10 µM.

What about the Ki [2] of the same compound?
Its Ki is > 10 µM.

What about the Ki [3] of the same compound?
The Ki was > 10 µM.

What about the Ki [4] of the same compound?
The Ki was 1 µM.

What about the Ki [5] of the same compound?
Its Ki is 0.0159 µM and 0.0501 µM.

What about the Ki [6] of the same compound?
The Ki was > 10 µM.

What about the Ki [7] of the same compound?
Its Ki is > 10 µM.

What about the Ki [8] of the same compound?
The Ki was > 10 µM.

What about the Ki [9] of the same compound?
Its Ki is 1 µM.

What about the Ki [10] of the same compound?
Its Ki is > 10 µM.

What about the Ki [11] of the same compound?
The Ki was 1 µM.

What about the Ki [12] of the same compound?
Its Ki is 5.01 µM.

For `CC(N)Cc1c[nH]c2ccc(OCc3cccs3)cc12` (stereo not drawn) [NSC_5311036], which Ki [13] is on record?
Its Ki is > 10 µM.

What about the Ki [14] of the same compound?
The Ki was > 10 µM.

And the Ki [5]?
The Ki was 0.0251 µM.

And the Ki [15]?
Its Ki is > 10 µM.

What about the Ki [16] of the same compound?
The Ki was 0.251 µM.

What about the Ki [17] of the same compound?
Its Ki is > 10 µM.

What about the Ki [18] of the same compound?
The Ki was 0.501 µM.

And the Ki [8]?
Its Ki is > 10 µM.

And the Ki [19]?
The Ki was > 10 µM.

And the Ki [20]?
Its Ki is > 10 µM.

And the Ki [21]?
The Ki was 1.26 µM.

And the Ki [22]?
The Ki was > 10 µM.

And the Ki [23]?
The Ki was > 10 µM.

What about the Ki [10] of the same compound?
Its Ki is > 10 µM.

And the Ki [24]?
The Ki was > 10 µM.

And the Ki [11]?
Its Ki is > 10 µM.

And the Ki [12]?
The Ki was 3.98 µM.

With `Cn1ccc2cc(NC(=O)Nc3cccnc3)ccc21` [SB 200646] as the compound, how does the Ki [25] read?
Its Ki is > 10 µM.

What about the Ki [26] of the same compound?
The Ki was > 10 µM.

What about the Ki [5] of the same compound?
Its Ki is 0.0316 µM and 0.0631 µM.

What about the Ki [17] of the same compound?
The Ki was > 10 µM.

What about the Ki [7] of the same compound?
Its Ki is > 10 µM.

And the Ki [27]?
The Ki was > 10 µM.

And the Ki [28]?
The Ki was > 10 µM.

What about the Ki [21] of the same compound?
Its Ki is > 10 µM.

And the Ki [9]?
Its Ki is > 10 µM.

What about the Ki [29] of the same compound?
Its Ki is > 10 µM.

What about the Ki [12] of the same compound?
The Ki was 6.31 µM and 5.01 µM.

What about the Ki [30] of the same compound?
The Ki was > 10 µM.

And the Ki [31]?
The Ki was 0.126 µM.

What about the Ki [32] of the same compound?
The Ki was 0.1 µM.
